Measurements from PubChem BioAssay AID330 (DTP/NCI, 2004).
“And” between values parts separate entries of the source, which are not always exact repeats. Equal entries are not always repeated. Inconclusive results and toxic doses are left out. How the source made its calls: active means survival T/C of 150% or more; inactive means T/C below 125% in these data. Square brackets hold non-standard residues; d marks the D form. Peptide text beside a SMILES is read from it. pGlu = O=C1CC[CH](C(=O)O)N1

System: P388 leukemia ip, CD2F1 mice, survival T/C
Assay: NCI In Vivo Anticancer Drug Screen. Data for tumor model P388 Leukemia (intraperitoneal) in CD2F1 (CDF1) mice
Conditions: endpoint: median survival time, higher = longer survival
Summary of the method: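 Mice carrying the transplanted tumor received test compound or vehicle. Survival was recorded in each group, and the value is the treated-group measurement divided by that of the vehicle-treated control group.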

[1] = dose: 50.0 mg/kg/injection, schedule: Q01DX009 (ip), vehicle: saline
[2] = dose: 100.0 mg/kg/injection, schedule: Q01DX009 (ip), vehicle: saline
[3] = dose: 200.0 mg/kg/injection, schedule: Q01DX009 (ip), vehicle: saline
[4] = dose: 60.0 mg/kg/injection, schedule: Q01DX005 (ip), vehicle: saline with Tween-80
[5] = dose: 120.0 mg/kg/injection, schedule: Q01DX005 (ip), vehicle: saline with Tween-80
[6] = dose: 240.0 mg/kg/injection, schedule: Q01DX005 (ip), vehicle: saline with Tween-80
[7] = dose: 50.0 mg/kg/injection, schedule: Q01DX005 (ip), vehicle: Klucel (hydroxypropylcellulose) (HPC)
[8] = dose: 100.0 mg/kg/injection, schedule: Q01DX005 (ip), vehicle: Klucel (hydroxypropylcellulose) (HPC)
[9] = dose: 50.0 mg/kg/injection, schedule: Q01DX009 (ip), vehicle: saline with Tween-80
[10] = dose: 100.0 mg/kg/injection, schedule: Q01DX009 (ip), vehicle: saline with Tween-80
[11] = dose: 200.0 mg/kg/injection, schedule: Q01DX009 (ip), vehicle: saline with Tween-80
[12] = dose: 100.0 mg/kg/injection, schedule: Q04DX002 (ip), vehicle: saline with Tween-80
[13] = dose: 200.0 mg/kg/injection, schedule: Q04DX002 (ip), vehicle: saline with Tween-80
[14] = dose: 400.0 mg/kg/injection, schedule: Q04DX002 (ip), vehicle: saline with Tween-80
[15] = dose: 25.0 mg/kg/injection, schedule: Q01DX005 (ip), vehicle: saline with Tween-80
[16] = dose: 50.0 mg/kg/injection, schedule: Q01DX005 (ip), vehicle: saline with Tween-80
[17] = dose: 100.0 mg/kg/injection, schedule: Q01DX005 (ip), vehicle: saline with Tween-80
[18] = dose: 200.0 mg/kg/injection, schedule: Q01DX005 (ip), vehicle: Klucel (hydroxypropylcellulose) (HPC)

Measured: T/C

O=c1ccocc1CN1CCCCC1
inactive: [1] 100 % of control | [2] 99 % of control | [3] 99 % of control

CCC[CH2][Sn](=[S])[CH2]CCC
inactive: dose: 1.56 mg/kg/injection, schedule: Q01DX009 (ip), vehicle: other 116 % of control

O=C(O)COc1c2occc2cc2ccc(=O)oc12
inactive: [4] 97 % of control | [5] 96 % of control | [6] 100 % of control

CCCCCC(=O)O[C@H]1CC[C@@H]2[C@H]1[C@@H]1CCC=C1C2(C)C
inactive: dose: 100.0 mg/kg/injection, schedule: Q01DX001 (ip), vehicle: Klucel (hydroxypropylcellulose) (HPC) 97 % of control | dose: 200.0 mg/kg/injection, schedule: Q01DX001 (ip), vehicle: Klucel (hydroxypropylcellulose) (HPC) 99 % of control | dose: 400.0 mg/kg/injection, schedule: Q01DX001 (ip), vehicle: Klucel (hydroxypropylcellulose) (HPC) 100 % of control

CCO/C=C/C=C1C(=O)N(C)C(=O)N(C)C1=O
inactive: dose: 25.0 mg/kg/injection, schedule: Q01DX009 (ip), vehicle: saline + Tween-80 + alcohol 100 % of control and 108 % of control | dose: 50.0 mg/kg/injection, schedule: Q01DX009 (ip), vehicle: saline + Tween-80 + alcohol 111 % of control and 118 % of control | dose: 100.0 mg/kg/injection, schedule: Q01DX009 (ip), vehicle: saline + Tween-80 + alcohol 108 % of control and 117 % of control | dose: 200.0 mg/kg/injection, schedule: Q01DX009 (ip), vehicle: saline + Tween-80 + alcohol 115 % of control and 119 % of control | dose: 400.0 mg/kg/injection, schedule: Q01DX009 (ip), vehicle: saline + Tween-80 + alcohol 103 % of control

CC(=O)OC(NC(=O)c1cc(C)cc(C)c1)c1ccncc1 (stereo unspecified)
inactive: [7] 97 % of control | [8] 86 % of control

COc1ccccc1OCC1CCC(=O)O1 (stereo unspecified)
inactive: dose: 100.0 mg/kg/injection, schedule: Q04DX002 (ip), vehicle: Klucel (hydroxypropylcellulose) (HPC) 95 % of control | dose: 200.0 mg/kg/injection, schedule: Q04DX002 (ip), vehicle: Klucel (hydroxypropylcellulose) (HPC) 103 % of control | dose: 400.0 mg/kg/injection, schedule: Q04DX002 (ip), vehicle: Klucel (hydroxypropylcellulose) (HPC) 101 % of control

CCCCCCC(=O)/C=C/c1cccc(OCc2ccc(Cl)cc2)c1
inactive: [9] 101 % of control | [10] 93 % of control | [11] 101 % of control

Cc1ccc(S(=O)(=O)OCC2CCCC2COS(=O)(=O)c2ccc(C)cc2)cc1 (stereo unspecified)
inactive: dose: 100.0 mg/kg/injection, schedule: Q01DX009 (ip), vehicle: Klucel (hydroxypropylcellulose) (HPC) 100 % of control | dose: 200.0 mg/kg/injection, schedule: Q01DX009 (ip), vehicle: Klucel (hydroxypropylcellulose) (HPC) 106 % of control | dose: 400.0 mg/kg/injection, schedule: Q01DX009 (ip), vehicle: Klucel (hydroxypropylcellulose) (HPC) 105 % of control

NC(c1ccccc1)c1cccs1 (stereo unspecified)
inactive: [7] 100 % of control | [8] 105 % of control

COc1cccc(N=C(C2=C(O)c3ccccc3C2=O)c2ccccc2)c1
inactive: [12] 101 % of control | [13] 97 % of control | [14] 100 % of control

O=c1c2ccccc2c2nc3ccccc3nc2c2ccccc12
inactive: [15] 91 % of control | [16] 97 % of control | [17] 96 % of control

CC1NC(C(=O)O)Cc2c1[nH]c1ccccc21 (stereo unspecified)
inactive: dose: 25.0 mg/kg/injection, schedule: Q01DX009 (ip), vehicle: suspension in saline 105 % of control | dose: 50.0 mg/kg/injection, schedule: Q01DX009 (ip), vehicle: suspension in saline 105 % of control | dose: 50.0 mg/kg/injection, schedule: Q04DX003 (ip), vehicle: saline 100 % of control | dose: 100.0 mg/kg/injection, schedule: Q01DX009 (ip), vehicle: suspension in saline 102 % of control | dose: 100.0 mg/kg/injection, schedule: Q04DX003 (ip), vehicle: saline 100 % of control | dose: 200.0 mg/kg/injection, schedule: Q04DX003 (ip), vehicle: saline 102 % of control

Cc1ccc(NC(=O)/C(Cl)=C2/Sc3ccccc3NC2=O)cc1
inactive: [4] 96 % of control | [5] 100 % of control | [6] 95 % of control

COc1cc2c(c(OC)c1OC)-c1cc3c(cc1[C@@H](OC(C)=O)[C@@H]1COC(=O)[C@H]1C2)OCO3
inactive: dose: 1.25 mg/kg/injection, schedule: Q01DX009 (ip), vehicle: Klucel (hydroxypropylcellulose) (HPC) 100 % of control | dose: 2.5 mg/kg/injection, schedule: Q01DX009 (ip), vehicle: Klucel (hydroxypropylcellulose) (HPC) 111 % of control | dose: 5.0 mg/kg/injection, schedule: Q01DX009 (ip), vehicle: Klucel (hydroxypropylcellulose) (HPC) 95 % of control | dose: 10.0 mg/kg/injection, schedule: Q01DX009 (ip), vehicle: Klucel (hydroxypropylcellulose) (HPC) 97 % of control

CCOC(=O)c1cc(-c2cc(C(=O)OCC)c3ccccc3n2)nc2ccccc12
inactive: dose: 6.25 mg/kg/injection, schedule: Q01DX005 (ip), vehicle: saline with Tween-80 96 % of control | dose: 12.5 mg/kg/injection, schedule: Q01DX005 (ip), vehicle: saline with Tween-80 95 % of control | [15] 100 % of control | [17] 86 % of control

CC(=O)C1(C)Nc2cccc3cccc(c23)N1
inactive: [7] 100 % of control | [8] 96 % of control | [18] 101 % of control

CCn1c2nc(=O)n(C)c(=O)c-2[n+]([O-])c2cc(Br)c(C)cc21
inactive: [12] 96 % of control | [13] 94 % of control | [14] 96 % of control

COC(=O)C(Cl)Cc1cncn1C (stereo unspecified)
inactive: [9] 94 % of control | [10] 92 % of control | [11] 93 % of control

COc1cc2c(cc1OC)C1CCN3C(=O)CCC3[N+]1(C)CC2 (stereo unspecified)
inactive: dose: 25.0 mg/kg/injection, schedule: Q01DX009 (ip), vehicle: saline sonified 90 % of control | dose: 50.0 mg/kg/injection, schedule: Q01DX009 (ip), vehicle: saline sonified 90 % of control | dose: 100.0 mg/kg/injection, schedule: Q01DX009 (ip), vehicle: saline sonified 90 % of control

CCOC(=O)CCC(NC(=O)C1CCC(=O)N1)C(=O)OCC (stereo unspecified) ([pGlu]-Glu(OEt)-OEt; configuration not given here)
inactive: [16] 96 % of control | [17] 91 % of control | dose: 200.0 mg/kg/injection, schedule: Q01DX005 (ip), vehicle: saline with Tween-80 98 % of control

CCC(=O)NC(Cc1ccc(F)cc1)C(=O)O (stereo unspecified)
inactive: [1] 90 % of control | [2] 88 % of control | [3] 90 % of control

Cc1cc(C)nc(NCCCNc2nc(C)cc(C)n2)n1
inactive: [7] 101 % of control | [8] 98 % of control | [18] 100 % of control

CCCCCCC1([N+](=O)[O-])CN(C)CC2CCCCN2C1 (stereo unspecified)
inactive: dose: 100.0 mg/kg/injection, schedule: Q04DX002 (ip), vehicle: saline 109 % of control | dose: 200.0 mg/kg/injection, schedule: Q04DX002 (ip), vehicle: saline 97 % of control

COC(=O)CC1C=CC(OC)[C@@]2(C)C(=O)C(OC)=CC(=O)[C@@H]12 (stereo partly specified)
inactive: [4] 101 % of control | [5] 105 % of control | [6] 91 % of control

O=C1OC(C2OC(=O)C(=O)C2C(=O)c2ccc(Cl)c(Cl)c2)C(C(=O)c2ccc(Cl)c(Cl)c2)C1=O (stereo unspecified)
inactive: dose: 60.0 mg/kg/injection, schedule: Q01DX005 (ip), vehicle: saline 100 % of control | dose: 120.0 mg/kg/injection, schedule: Q01DX005 (ip), vehicle: saline 96 % of control | dose: 240.0 mg/kg/injection, schedule: Q01DX005 (ip), vehicle: saline 90 % of control

COc1nc(SC)c(C#N)c(=O)[nH]1
inactive: [1] 107 % of control | [2] 98 % of control | [3] 107 % of control

CCCCCCCCCCCCCCCC[N+](C)(C)C(C)c1ccccc1 (stereo unspecified)
inactive: dose: 0.78 mg/kg/injection, schedule: Q04DX003 (ip), vehicle: saline with Tween-80 104 % of control and 106 % of control | dose: 1.56 mg/kg/injection, schedule: Q04DX003 (ip), vehicle: saline with Tween-80 116 % of control and 118 % of control | dose: 6.25 mg/kg/injection, schedule: Q04DX003 (ip), vehicle: saline with Tween-80 117 % of control
